{"source": "patent US20110105738A1", "about": "“DIARYL HEPATONOID-BASED COMPOUNDS USEFUL AS VIRUS INHIBITORS” (priority 2008, published 2011)", "key": {"[1]": {"tested_on": "CEF (chicken embryo fibroblasts)"}, "[2]": {"tested_on": "avian influenza virus KBNP-0028 (KCTC 10866BP)", "type": "cell-based, A/chicken/Korea/SNU0028/2000(H9N2)"}}, "note": "Like-named read-outs stand apart in the source and are kept apart here."}
{"smiles": "O=C(/C=C/CCc1ccc(O)c(O)c1)CCc1ccc(O)c(O)c1", "note": "[12B-AJ-7B, 1,7-bis(3,4-dihydroxyphenyl)-4(E)-hepten-3-one]", "values": [{"measurement": "Cytotoxicity, MTT assay reading", "setting": "[1]; 6.25 μg/mL", "value": 0.413}, {"measurement": "Cytotoxicity, MTT assay reading", "setting": "[1]; 12.5 μg/mL", "value": 0.364}, {"measurement": "Cytotoxicity, MTT assay reading", "setting": "[1]; 25 μg/mL", "value": 0.345}, {"measurement": "Cytotoxicity, MTT assay reading", "setting": "[1]; 50 μg/mL", "value": 0.399}, {"measurement": "Cytotoxicity, MTT assay reading", "setting": "[1]; 100 μg/mL", "value": 0.427}, {"measurement": "Cytotoxicity, MTT assay reading", "setting": "[1]; 200 μg/mL", "value": 0.560}, {"measurement": "Number of wells which hemagglutination occurs (among 6 wells)", "setting": "[2]; 12.5 μg/mL", "value": 3}, {"measurement": "Number of wells which hemagglutination occurs (among 6 wells)", "setting": "[2]; 25 μg/mL", "value": 3}, {"measurement": "Number of wells which hemagglutination occurs (among 6 wells)", "setting": "[2]; 50 μg/mL", "value": 3}, {"measurement": "Number of wells which hemagglutination occurs (among 6 wells)", "setting": "[2]; 100 μg/mL", "value": 3}]}
{"smiles": "O=C(/C=C/CCc1ccc(O)cc1)CCc1ccc(O)c(O)c1", "note": "[12B-AJ-7A-1, 1-(3′,4′-dihydroxyphenyl)-7-(4″-hydroxyphenyl)-4(E)-hepten-3-one]", "values": [{"measurement": "Cytotoxicity, MTT assay reading", "setting": "[1]; 6.25 μg/mL", "value": 0.424}, {"measurement": "Cytotoxicity, MTT assay reading", "setting": "[1]; 12.5 μg/mL", "value": 0.418}, {"measurement": "Cytotoxicity, MTT assay reading", "setting": "[1]; 25 μg/mL", "value": 0.347}, {"measurement": "Cytotoxicity, MTT assay reading", "setting": "[1]; 50 μg/mL", "value": 0.478}, {"measurement": "Cytotoxicity, MTT assay reading", "setting": "[1]; 100 μg/mL", "value": 0.411}, {"measurement": "Cytotoxicity, MTT assay reading", "setting": "[1]; 200 μg/mL", "value": 0.531}, {"measurement": "antiviral activities (in words)", "setting": "[2]", "value": "excellent antiviral activities"}, {"measurement": "Number of wells which hemagglutination occurs (among 6 wells)", "setting": "[2]; 12.5 μg/mL", "value": 3}, {"measurement": "Number of wells which hemagglutination occurs (among 6 wells)", "setting": "[2]; 25 μg/mL", "value": 3}, {"measurement": "Number of wells which hemagglutination occurs (among 6 wells)", "setting": "[2]; 50 μg/mL", "value": 2}, {"measurement": "Number of wells which hemagglutination occurs (among 6 wells)", "setting": "[2]; 100 μg/mL", "value": 0}]}
{"smiles": "O=C(CCc1ccc(O)cc1)C[C@H](CCc1ccc(O)cc1)O[C@@H]1OC[C@@H](O)[C@H](O)[C@H]1O", "note": "[12B-AJ-16A, (5S)1,7-bis(4-hydroxyphenyl)-5-o-β-D-xylopyranoside-heptane-3-one]", "values": [{"measurement": "Cytotoxicity, MTT assay reading", "setting": "[1]; 6.25 μg/mL", "value": 0.441}, {"measurement": "Cytotoxicity, MTT assay reading", "setting": "[1]; 12.5 μg/mL", "value": 0.427}, {"measurement": "Cytotoxicity, MTT assay reading", "setting": "[1]; 25 μg/mL", "value": 0.432}, {"measurement": "Cytotoxicity, MTT assay reading", "setting": "[1]; 50 μg/mL", "value": 0.451}, {"measurement": "Cytotoxicity, MTT assay reading", "setting": "[1]; 100 μg/mL", "value": 0.302}, {"measurement": "Cytotoxicity, MTT assay reading", "setting": "[1]; 200 μg/mL", "value": 0.309}, {"measurement": "Number of wells which hemagglutination occurs (among 6 wells)", "setting": "[2]; 12.5 μg/mL", "value": 3}, {"measurement": "Number of wells which hemagglutination occurs (among 6 wells)", "setting": "[2]; 25 μg/mL", "value": 3}, {"measurement": "Number of wells which hemagglutination occurs (among 6 wells)", "setting": "[2]; 50 μg/mL", "value": 1}, {"measurement": "Number of wells which hemagglutination occurs (among 6 wells)", "setting": "[2]; 100 μg/mL", "value": 0}]}
{"smiles": "O=C(CCc1ccc(O)c(O)c1)CC(CCc1ccc(O)cc1)O[C@@H]1OC[C@@H](O)[C@H](O)[C@H]1O", "note": "(stereo partly drawn) [12B-AJ-11B-1, 1-(3,4-dihydroxyphenyl)-7-(4-hydroxyphenyl)-3-heptanone-5-o-β-D-xylopyranose]", "values": [{"measurement": "Cytotoxicity, MTT assay reading", "setting": "[1]; 6.25 μg/mL", "value": 0.535}, {"measurement": "Cytotoxicity, MTT assay reading", "setting": "[1]; 12.5 μg/mL", "value": 0.399}, {"measurement": "Cytotoxicity, MTT assay reading", "setting": "[1]; 25 μg/mL", "value": 0.483}, {"measurement": "Cytotoxicity, MTT assay reading", "setting": "[1]; 50 μg/mL", "value": 0.487}, {"measurement": "Cytotoxicity, MTT assay reading", "setting": "[1]; 100 μg/mL", "value": 0.316}, {"measurement": "Cytotoxicity, MTT assay reading", "setting": "[1]; 200 μg/mL", "value": 0.363}, {"measurement": "antiviral activities (in words)", "setting": "[2]", "value": "excellent antiviral activities"}, {"measurement": "Number of wells which hemagglutination occurs (among 6 wells)", "setting": "[2]; 12.5 μg/mL", "value": 3}, {"measurement": "Number of wells which hemagglutination occurs (among 6 wells)", "setting": "[2]; 25 μg/mL", "value": 3}, {"measurement": "Number of wells which hemagglutination occurs (among 6 wells)", "setting": "[2]; 50 μg/mL", "value": 3}, {"measurement": "Number of wells which hemagglutination occurs (among 6 wells)", "setting": "[2]; 100 μg/mL", "value": 1}]}
